In patent US20140069008A1, “PLANT C[…] UTILIZING PHOSPHITE AS A NUTRIENT AND AS A CONTROL AGENT FOR WEEDS AND ALGAE” (Centro de Investigacion y de Estudios Avanzados del …, priority 2010, published 2014):

Columns and labels:
[1] = system: transgenic tobacco line ptxDNt-80; assay: Cultivation of transgenic tobacco in non-sterilized acidic agricultural soil amended with phosphite; format: in vivo
Experimental: The results of Example 1 were obtained from greenhouse experiments with plants grown in a sterilized mixture of sand and vermiculite as the substrate. In contrast, the present example reports experiments performed in a greenhouse using a non-sterilized agricultural soil as a substrate, to determine whether the cultivation system disclosed herein works equally well with a natural substrate. Although the experiments were performed in a greenhouse, the agricultural soil was not sterilized and therefore contained soil organisms, such as bacteria and fungi, that live naturally in the soil.
An acidic agricultural soil was obtained from North Mexico. The soil has a low content of phosphorus, about 5 parts per million. The soil was used directly from the field, and was not sterilized. The soil is a sandy loam, composed of about 30% clay, 21% silt, and 49% sand, and is acidic, with a pH of 5.1. The soil has an electrical conductivity (milli-mhos per centimeter) of 0.20. The soil has 1.4% organic matter. Besides phosphorus, the soil has the following assimilable nutrients and minor elements (parts per million): nitrogen 5, potassium 100, iron 7, manganese 26, copper 0.2, and zinc 0.9. The soil has soluble cations and anions (milli-equivalents per liter) as follows: potassium 0.15, calcium 1.5, magnesium 0.5, sodium 0.5, bicarbonates 1.0, and chlorides 0.7.
A transgenic tobacco line, ptxDNt-80, was used for the experiments. The transgenic line has been modified genetically to express a bacterial phosphite oxidoreductase, namely, PtxD (SEQ ID NO:1). The soil was amended with 40, 60, or 80 parts per million of phosphorus by addition of phosphate or phosphite. Then, seeds from the transgenic and control lines were sowed on the soil. The growth of the transgenic line was measured at different days after germination.

ptxDNt plants = assay: Greenhouse growth in sterilized sand and vermiculite amended with Phi, transgenic tobacco; format: in vivo, Nicotiana tabacum L. cv Xanthi
Description: (§1) To determine whether expression of the ptxD gene would enable other plant species more amenable for physiological and weed-control studies to use Phi as a P source, we generated transgenic tobacco plants harboring the 35S::PTXD construct (ptxDNt lines) (see FIG. 8). Transgenic and control seedlings were transferred to plastic bags containing a sterilized mixture of sand and vermiculite amended with either Phi or Pi as P source. […] Because the main negative effect in vitro of Phi on WT plants was on root growth, we also examined the root system of transgenic and control plants grown under different treatments. […] Transgenic plants fertilized with Phi quantitatively performed as well as WT and ptxDNt plants fertilized with Pi (see FIG. 10A).
Pi is essential for CO2 fixation in the chloroplast, and plants suffering from Pi starvation have reduced levels of photosynthesis. […] When fertilized with either Pi or Phi, ptxDNt plants had rates of photosynthesis similar to those observed for control plants grown in Pi (see FIG. 10A). The effect on photosynthesis and root system development of control plants fertilized with Phi could not be evaluated because these plants died soon after transplantation.
(§2) For Arabidopsis greenhouse experiments, pots were filled with 0.3 kg of a sterilized mixture of sand and vermiculite (1:1) and mechanically mixed with either Pi (KH2PO4) or Phi (NaH2PO3.5H2O) at 10, 20, and 40 mg·kg^−1. […] At harvest, aerial parts of Arabidopsis (36 days old) and Tobacco (120 days old) plants were cut off at the soil surface and dried in a vacuum oven at 70° C. for biomass quantification. […] Photosynthesis rate was determined using a portable Li-6200 photosynthesis system (Li-Cor, Lincoln, Nebr., USA) on fully expanded, young leaves. Leaf area was calculated using the software ImageJ [35].
FIG. 10. […] Note that Phi was not detected either in leaf or floral tissues of ptxDNt-36 plants grown in a Phi-amended substrate. * Indicates measurements that are statistically different from the corresponding control (p<0.005).

[2] = system: ptxDNt plants (ptxDNt-80); assay: Growth competition experiment, transgenic tobacco; format: in vivo, Nicotiana tabacum; details: Phi fertilization, competition with B. distachyon
Description: (§3) In addition to the incapacity of plants to metabolize it, Phi acts as a potentially effective herbicide mainly by interfering with the signaling pathways that induce the rescue system activated in Pi-starved plants. Cultivation of transgenic plants expressing the ptxD gene, combined with Phi as a P fertilizer, could be an effective weed control system in soils with low Pi availability. To test this idea, we carried out growth competition experiments between ptxDNt plants and the grass weed False Brome (Brachypodium distachyon), using Phi or Pi as a P fertilizer. In unfertilized soil, both B. distachyon and tobacco plants had limited growth. When soil was fertilized with Pi, the growth of both species increased, with the grass showing faster growth than the tobacco plants.
(§4) For growth competition experiments, different proportions of seeds from ptxDNt-80 and the following weeds were utilized (transgenic:weed): Ipomoea purpurea (13:30), Brachiaria plantaginea (13:60), Amaranthus hybridus (5:15), Brachypodium distachyon (50:50). All seeds were sown in a tray containing a nonsterilized mixture of sand and vermiculite (2 kg for experiments with Amaranthus hybridus and 6 kg for the rest). […] Plants were harvested (at 54 day old for Brachiaria and Ipomoea or at 40 day old for A. hybridus experiments) for biomass quantification. […]

[3] = system: control plants (WT Arabidopsis); assay: Greenhouse growth in sterilized sand and vermiculite supplemented with Phi, control plants; format: in vivo
Experimental: For Arabidopsis greenhouse experiments, pots were filled with 0.3 kg of a sterilized mixture of sand and vermiculite (1:1) and mechanically mixed with either Pi (KH2PO4) or Phi (NaH2PO3.5H2O) at 10, 20, and 40 mg·kg^−1. For tobacco experiments, 3 kg of the same substrate were weighed in black plastic bags amended with 20, 40, and 80 mg·kg^−1 of Pi or Phi. One plant per pot and 8-10 plants per line per treatment were included. Pots were arranged following a completely random design in the greenhouse. At harvest, aerial parts of Arabidopsis (36 days old) and Tobacco (120 days old) plants were cut off at the soil surface and dried in a vacuum oven at 70° C. for biomass quantification. In all cases, seeds were collected separately. Photosynthesis rate was determined using a portable Li-6200 photosynthesis system (Li-Cor, Lincoln, Nebr., USA) on fully expanded, young leaves. Leaf area was calculated using the software ImageJ [35].
FIG. 5. Transgenic Arabidopsis plants expressing a phosphite oxidoreductase can use phosphite as a phosphorus source. (A) Comparative growth of seedlings from ptxDAt-3, -5 and -7 lines, and wild type (WT, Col-0) in solid media containing 1 mM phosphate (Pi) or 1 mM phosphite (Phi). (B) Transgenic Arabidopsis lines and WT control grown in vertical plates containing 1 mM Phi. […]

[4] = system: False Brome (Brachypodium distachyon); assay: Growth competition experiment, weed; format: in vivo
Description: as §3, §4

WT plants (tobacco) = assay: Greenhouse growth in sterilized sand and vermiculite amended with Phi, WT tobacco; format: in vivo, Nicotiana tabacum L. cv Xanthi; details: substrate supplemented with Phi, after transplantation
Description: as §1
as §2, with “[35]. […]” for “[35].”

[5] = system: control seedlings (wild type, Col-0); assay: Germination and growth of non-transformed seedlings in media lacking Pi, supplemented with Phi; format: in vivo, Arabidopsis
Experimental: To confirm that 35S::PTXD plants are capable of using Phi as a P source, seeds from transgenic lines and non-transformed siblings were germinated in media lacking Pi, and supplemented with Phi.
FIG. 5. Transgenic Arabidopsis plants expressing a phosphite oxidoreductase can use phosphite as a phosphorus source. (A) Comparative growth of seedlings from ptxDAt-3, -5 and -7 lines, and wild type (WT, Col-0) in solid media containing 1 mM phosphate (Pi) or 1 mM phosphite (Phi). (B) Transgenic Arabidopsis lines and WT control grown in vertical plates containing 1 mM Phi. (C) Transgenic and WT plants grown in a sterilized mixture of sand and vermiculite fertilized with Pi or Phi as phosphorus (P) source. Treatment without addition of a P source (NO P) was utilized as a control. A top view of WT plants in media containing 40 mg·kg^−1 Phi is included. Photographed plants are representative of two experiments with 8-10 plants/treatment/line each. The bar represents 5 cm to indicate scale.
FIG. 6. Growth of WT Arabidopsis and tobacco plants in phosphite-containing media. Comparative growth of Arabidopsis and tobacco non-transformed seedlings in media lacking a phosphorus (P) source supplemented with 1 mM or 0.005 mM phosphate (Pi) or 1 mM phosphite (Phi).

## phosphite
[1]; 20 parts per million phosphite, four months after germination
  more seeds than either line fertilized with the same amount of phosphate: 33%
[1]; 68 or 74 days after germination
  height versus transgenic or control plants fertilized with phosphate: greater height
[1]; 80 parts per million phosphite, 75 days after germination
  biomass of leaves and stems versus either line fertilized with phosphate: higher biomass
[1]; four months after germination
  total production of capsules and seeds per plant versus either line fertilized with phosphate: similar
ptxDNt plants; 80 mg·kg^−1 of Phi, greater than Pi, statistically significant
  total biomass difference versus plants under similar Pi regime: 40%
ptxDNt plants; 20 and 40 mg·kg^−1 of Phi
  total biomass versus plants under similar Pi regimes: slightly higher
ptxDNt plants; fertilized with Phi
  rate of photosynthesis versus control plants grown in Pi: similar
[2]
  increase of tobacco biomass with respect to Pi fertilization: 865%
[3]
  survival of control plants: ≤ 20 days
[4]; Phi fertilization, competition with ptxDNt tobacco
  decrease of weed biomass with respect to Pi fertilization: 90%
[4]; Phi used as fertilizer
  time at which weed growth was completely arrested: 15-20 days after sowing
WT plants (tobacco)
  development of WT plants: completely arrested their development and died a few days after transplantation
[5]
  growth of control seedlings: completely arrested
